# Target: His-Tagged hOGA (human O-GlcNAcase) (Homo sapiens (Human), UniProt O60502)
# Assay: Human O-GlcNAcase enzyme inhibition assay;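 note: reactions contained 20 nM His-tagged hOGA enzyme with 10 µM FL-GlcNAc substrate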
# Format: biochemical
# Conditions: OGA enzyme inhibition assay; FL-GlcNAc substrate, pH 6.5; activity classes defined in μM; read-out: OGA IC50
# Protocol: Then, 20 nM of His-Tagged hOGA and 10 μM of FL-GlcNAc (Fluorescein mono-beta-D-(2-deoxy-2-N-acetyl) glucopyranoside; Marker Gene Technologies Inc, M1485) were added to the 384-well plate for a final volume of 20 μl.
# Sequence of His-Tagged hOGA (human O-GlcNAcase) (O60502 whole entry): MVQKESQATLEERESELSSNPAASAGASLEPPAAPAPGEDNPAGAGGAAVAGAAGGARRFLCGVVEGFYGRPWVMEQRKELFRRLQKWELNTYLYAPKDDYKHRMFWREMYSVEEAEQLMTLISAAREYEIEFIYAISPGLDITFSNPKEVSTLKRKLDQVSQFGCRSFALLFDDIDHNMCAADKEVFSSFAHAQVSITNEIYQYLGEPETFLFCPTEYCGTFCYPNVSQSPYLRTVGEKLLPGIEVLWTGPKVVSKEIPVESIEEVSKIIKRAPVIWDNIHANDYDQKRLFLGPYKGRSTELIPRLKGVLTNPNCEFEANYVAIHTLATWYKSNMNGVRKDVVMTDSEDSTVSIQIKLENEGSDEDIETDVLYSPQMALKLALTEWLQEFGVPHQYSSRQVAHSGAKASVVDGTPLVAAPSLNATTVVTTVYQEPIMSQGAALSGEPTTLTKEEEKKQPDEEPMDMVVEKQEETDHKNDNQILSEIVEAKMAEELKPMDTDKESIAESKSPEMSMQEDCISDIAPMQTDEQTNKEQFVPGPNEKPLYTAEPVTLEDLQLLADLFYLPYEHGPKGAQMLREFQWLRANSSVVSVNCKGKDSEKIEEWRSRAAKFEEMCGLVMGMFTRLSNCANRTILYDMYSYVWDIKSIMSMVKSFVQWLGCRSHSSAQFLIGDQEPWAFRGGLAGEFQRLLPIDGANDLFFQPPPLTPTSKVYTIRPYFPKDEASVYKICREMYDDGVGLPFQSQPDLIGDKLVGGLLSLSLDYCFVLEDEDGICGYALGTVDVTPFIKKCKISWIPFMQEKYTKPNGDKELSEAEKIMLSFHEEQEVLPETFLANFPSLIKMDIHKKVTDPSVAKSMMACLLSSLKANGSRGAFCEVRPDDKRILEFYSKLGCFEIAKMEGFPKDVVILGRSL
row,Compound,IC50 [µM]
1,"CC(O)c1cnc(N2CCN(C(C)c3ccc4nccnc4c3)CC2)nc1 (racemic) [Example 84, 1-(2-(4-(1-(quinoxalin-6-yl)ethyl)piperazin-1-yl)pyrimidin-5-yl) ethan-1-ol]",0.05 to 0.2
2,"CC(c1ccc2nccnc2c1)N1CCN(c2ncc(C(C)(C)O)cn2)CC1 (racemic) [Example 85, 2-(2-(4-(1-(quinoxalin-6-yl)ethyl)piperazin-1-yl)pyrimidin-5-yl) propan-2-ol]",0.05 to 0.2
3,"CC(c1ccc2nccnc2c1)N1CCN(c2ncc(CO)cn2)CC1 (racemic) [Example 86, (2-(4-(1-(Quinoxalin-6-yl)ethyl)piperazin-1-yl)pyrimidin-5-yl) methanol]",0.05 to 0.2
4,"CC(c1ccc2nccnc2c1)N1CCN(c2ncc(C(O)C(F)(F)F)cn2)CC1 (racemic) [Example 87, 2,2,2-trifluoro-1-(2-(4-(1-(quinoxalin-6-yl)ethyl)piperazin-1-yl)pyrimidin-5-yl)ethan-1-ol]",0.05 to 0.2
5,"CC(C)C(O)c1cnc(N2CCN(C(C)c3ccc4nccnc4c3)CC2)nc1 (racemic) [Example 88, 2-methyl-1-(2-(4-(1-(quinoxalin-6-yl)ethyl)piperazin-1-yl)pyrimidin-5-yl) propan-1-ol]",0.05 to 0.2
6,"CC(c1ccc2nccnc2c1)N1CCN(c2ncc(C3(O)CCOCC3)cn2)CC1 (racemic) [Example 89, 4-(2-(4-(1-(quinoxalin-6-yl)ethyl)piperazin-1-yl)pyrimidin-5-yl)tetrahydro-2H-pyran-4-ol]",0.05 to 0.2
7,"CC(c1ccn2ccnc2c1)N1CCN(c2ncc(C(F)(F)F)cn2)CC1 (racemic) [Example 91, 7-(1-(4-(5-(trifluoromethyl)pyrimidin-2-yl)piperazin-1-yl)ethyl)imidazo[1,2-a]pyridine]",1 to 10
8,"CC(c1ccc2cccnc2n1)N1CCN(c2ncc(C(F)(F)F)cn2)CC1 (racemic) [Example 92, 2-(1-(4-(5-(trifluoromethyl)pyrimidin-2-yl)piperazin-1-yl)ethyl)-1,8-naphthyridine]",0.05 to 0.2
9,"CC(c1cnc2cccnc2c1)N1CCN(c2ncc(C(F)(F)F)cn2)CC1 (racemic) [Example 93, 3-(1-(4-(5-(trifluoromethyl)pyrimidin-2-yl)piperazin-1-yl)ethyl)-1,5-naphthyridine]",0.2 to 1
10,"CC(c1ccc2nccnc2c1)N1CCN(c2ncc(C3=CCCC3)cn2)CC1 (racemic) [Example 94, 6-(1-(4-(5-(cyclopent-1-en-1-yl)pyrimidin-2-yl)piperazin-1-yl)ethyl)quinoxaline]",0.2 to 1
11,"CC(c1ccc2scnc2c1)N1CCN(c2ncc(C(=O)N(C)C)cn2)CC1 (racemic) [Example 97, 2-(4-(1-(benzo[d]thiazol-5-yl)ethyl)piperazin-1-yl)-N,N-dimethylpyrimidine-5-carboxamide]",< 0.05
12,"COC(=O)c1cnc(N2CCN(C(C)c3ccc4c(c3)OCC4)CC2)nc1 (racemic) [Example 98, Methyl 2-(4-(1-(2,3-dihydrobenzofuran-6-yl)ethyl)piperazin-1-yl)pyrimidine-5-carboxylate]",< 0.05
13,"CNC(=O)c1cnc(N2CCN(C(C)c3ccc4c(c3)OCC4)CC2)nc1 (racemic) [Example 99, 2-(4-(1-(2,3-dihydrobenzofuran-6-yl)ethyl)piperazin-1-yl)-N-methylpyrimidine-5-carboxamide]",< 0.05
14,"CC(c1ccc2c(c1)OCC2)N1CCN(c2ncc(C(=O)N(C)C)cn2)CC1 (racemic) [Example 100, 2-(4-(1-(2,3-dihydrobenzofuran-6-yl)ethyl)piperazin-1-yl)-N,N-dimethylpyrimidine-5-carboxamide]",< 0.05
15,"CC(c1ccc2c(c1)OCC2)N1CCN(c2nccc(C(=O)N(C)C)n2)CC1 (racemic) [Example 101, 2-(4-(1-(2,3-dihydrobenzofuran-6-yl)ethyl)piperazin-1-yl)-N,N-dimethylpyrimidine-4-carboxamide]",< 0.05
16,"COC(=O)c1ccnc(N2CCN(C(C)c3ccc4c(c3)OCC4)CC2)n1 (racemic) [Example 102, Methyl 2-(4-(1-(2,3-dihydrobenzofuran-6-yl)ethyl)piperazin-1-yl)pyrimidine-4-carboxylate]",< 0.05
17,"CNC(=O)c1ccnc(N2CCN(C(C)c3ccc4c(c3)OCC4)CC2)n1 (racemic) [Example 103, 2-(4-(1-(2,3-dihydrobenzofuran-6-yl)ethyl)piperazin-1-yl)-N-methylpyrimidine-4-carboxamide]",< 0.05
18,"COC(=O)c1cnc(N2CCN(C(C)c3ccc4nccnc4c3)CC2)nc1 (racemic) [Example 105, Methyl 2-(4-(1-(quinoxalin-6-yl)ethyl)piperazin-1-yl)pyrimidine-5-carboxylate]",0.05 to 0.2
19,"CC(c1ccc2nccnc2c1)N1CCN(c2ncc(C(=O)O)cn2)CC1 (racemic) [Example 106, 2-(4-(1-(quinoxalin-6-yl)ethyl)piperazin-1-yl)pyrimidine-5-carboxylic acid]",0.05 to 0.2
20,"CC(=O)NC(C)(C)c1cnc(N2CCN(C(C)c3ccc4nccnc4c3)CC2)nc1 (racemic) [Example 107, N-(2-(2-(4-(1-(quinoxalin-6-yl)ethyl)piperazin-1-yl)pyrimidin-5-yl)propan-2-yl)acetamide]",0.2 to 1
21,CC(=O)NCc1nnc(N2CCN(C(C)c3ccc4c(c3)OCC4)CC2)s1 (racemic) [Example 110],< 0.05
22,"CC(=O)Nc1nnc(N2CCN(C(C)c3cnc4cccnc4c3)CC2)s1 (racemic) [Example 111, N-(5-(4-(1-(1,5-naphthyridin-3-yl)ethyl)piperazin-1-yl)-1,3,4-thiadiazol-2-yl)acetamide]",0.05 to 0.2
23,"CC(=O)NCc1nnc(N2CCN(C(C)c3ccc4nccnc4c3)CC2)s1 (racemic) [Example 112, N-((5-(4-(1-(quinoxalin-6-yl)ethyl)piperazin-1-yl)-1,3,4-thiadiazol-2-yl)methyl)acetamide]",0.05 to 0.2
24,"CC(c1ccc2c(c1)OCC2)N1CCN(c2nnc(CO)s2)CC1 (racemic) [Example 113, (5-(4-(1-(2,3-dihydrobenzofuran-6-yl)ethyl)piperazin-1-yl)-1,3,4-thiadiazol-2-yl)methanol]",< 0.05

# More lines, now with the values ahead:
row,IC50 [µM],Compound
1,< 0.05,"CC(c1ccc2scnc2c1)N1CCN(c2ncc(CO)cn2)CC1 (racemic) [Example 73, (2-(4-(1-(benzo[d]thiazol-5-yl)ethyl)piperazin-1-yl)pyrimidin-5-yl)methanol]"
2,< 0.05,"CC(c1ccc2c(c1)OCC2)N1CCN(c2ncc(C(C)(C)O)cn2)CC1 (racemic) [Example 74, 2-(2-(4-(1-(2,3-dihydrobenzofuran-6-yl)ethyl)piperazin-1-yl)pyrimidin-5-yl) propan-2-ol]"
3,< 0.05,"CC(c1ccc2c(c1)OCC2)N1CCN(c2ncc(CO)cn2)CC1 (racemic) [Example 75, (2-(4-(1-(2,3-Dihydrobenzofuran-6-yl)ethyl)piperazin-1-yl)pyrimidin-5-yl) methanol]"
4,< 0.05,"CC(c1ccc2c(c1)OCC2)N1CCN(c2ncc(C3(O)CC3)cn2)CC1 (racemic) [Example 76, 1-(2-(4-(1-(2,3-dihydrobenzofuran-6-yl)ethyl)piperazin-1-yl)pyrimidin-5-yl)cyclopropan-1-ol]"
5,< 0.05,"CC(c1ccc2c(c1)OCC2)N1CCN(c2ncc(C(O)C(F)(F)F)cn2)CC1 (racemic) [Example 77, 1-(2-(4-(1-(2,3-dihydrobenzofuran-6-yl)ethyl)piperazin-1-yl)pyrimidin-5-yl)-2,2,2-trifluoroethan-1-ol]"
6,< 0.05,"CC(C)C(O)c1cnc(N2CCN(C(C)c3ccc4c(c3)OCC4)CC2)nc1 (racemic) [Example 78, 1-(2-(4-(1-(2,3-dihydrobenzofuran-6-yl)ethyl)piperazin-1-yl)pyrimidin-5-yl)-2-methylpropan-1-ol]"
7,< 0.05,"CC(c1ccc2c(c1)OCC2)N1CCN(c2ncc(C3(O)CCOC3)cn2)CC1 (racemic) [Example 79, 3-(2-(4-(1-(2,3-dihydrobenzofuran-6-yl)ethyl)piperazin-1-yl)pyrimidin-5-yl)tetrahydrofuran-3-ol]"
8,< 0.05,"CC(c1ccc2c(c1)OCC2)N1CCN(c2ncc(C3(O)CCCCC3)cn2)CC1 (racemic) [Example 80, 1-(2-(4-(1-(2,3-dihydrobenzofuran-6-yl)ethyl)piperazin-1-yl)pyrimidin-5-yl)cyclohexan-1-ol]"
9,< 0.05,"CC(c1ccc2c(c1)OCC2)N1CCN(c2ncc(C3(O)CCOCC3)cn2)CC1 (racemic) [Example 81, 4-(2-(4-(1-(2,3-dihydrobenzofuran-6-yl)ethyl)piperazin-1-yl)pyrimidin-5-yl)tetrahydro-2H-pyran-4-ol]"
10,< 0.05,"CC(c1ccc2c(c1)OCC2)N1CCN(c2ncc(C3(O)COC3)cn2)CC1 (racemic) [Example 82, 3-(2-(4-(1-(2,3-dihydrobenzofuran-6-yl)ethyl)piperazin-1-yl)pyrimidin-5-yl)oxetan-3-ol]"
11,< 0.05,"CC(c1ccc2cccnc2n1)N1CCN(c2ncc(C(O)C(F)(F)F)cn2)CC1 (racemic) [Example 83, 1-(2-(4-(1-(1,8-naphthyridin-2-yl)ethyl)piperazin-1-yl)pyrimidin-5-yl)-2,2,2-trifluoroethan-1-ol]"
12,< 0.05,"Cc1cnc(N2CCN(C(C)c3ccc4c(c3)OCC4)CC2)nc1 (racemic) [Example 90, 2-(4-(1-(2,3-dihydrobenzofuran-6-yl)ethyl)piperazin-1-yl)-5-methylpyrimidine]"
13,< 0.05,"COC(=O)c1cnc(N2CCN(C(C)c3ccc4scnc4c3)CC2)nc1 (racemic) [Example 95, Methyl 2-(4-(1-(benzo[d]thiazol-5-yl)ethyl)piperazin-1-yl)pyrimidine-5-carboxylate]"
14,< 0.05,"CNC(=O)c1cnc(N2CCN(C(C)c3ccc4scnc4c3)CC2)nc1 (racemic) [Example 96, 2-(4-(1-(benzo[d]thiazol-5-yl)ethyl)piperazin-1-yl)-N-methylpyrimidine-5-carboxamide]"
15,< 0.05,CC(=O)NC(C)(C)c1cnc(N2CCN(C(C)c3ccc4c(c3)OCC4)CC2)nc1 (racemic) [Example 104]
